Results from PMC11480411, “Mucosal sugars delineate pyrazine vs pyrazinone autoinducer signaling in Klebsiella oxytoca” (Nature Communications, 2024).
Where “and” joins values, the source holds several entries; their conditions need not be identical. Equal entries are not always repeated.

Assays:
Assay type in all cases: cell-based
[1] = molecular target: T1, VIPR2 (Homo sapiens, UniProt P41587); experiment: PRESTO-Tango GPCR screen; details: 100 µM
T1 construct: purchased PRESTO-Tango GPCR kit (Roth lab / Addgene)
Method in brief: (§1)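 HTLA cells (HEK293 stably expressing β-arrestin-TEV and tTA-luciferase) transiently transfected with GPCR-Tango plasmids, then exposed to compound at 100 μM final for 20 h. Luminescence read after Bright-Glo; activation fold = RLU over PBS control. Dose-response spanned 10^−4 M to 10^−15 M.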

[2] = molecular target: T2, GPR78 (Homo sapiens, UniProt Q96P69); experiment: PRESTO-Tango GPCR screen; details: 100 µM
T2 construct: purchased PRESTO-Tango GPCR kit (Roth lab / Addgene)
Method in brief: as §1

[3] = molecular target: T3, PTH1R (Homo sapiens, UniProt Q03431); experiment: PRESTO-Tango GPCR screen; details: 100 µM
T3 construct: purchased PRESTO-Tango GPCR kit (Roth lab / Addgene)
Method in brief: as §1

[4] = molecular target: T4, F2RL3 (Homo sapiens, UniProt Q96RI0); experiment: PRESTO-Tango GPCR screen; details: 100 µM
T4 construct: purchased PRESTO-Tango GPCR kit (Roth lab / Addgene)
T4 sequence (Q96RI0 18-385): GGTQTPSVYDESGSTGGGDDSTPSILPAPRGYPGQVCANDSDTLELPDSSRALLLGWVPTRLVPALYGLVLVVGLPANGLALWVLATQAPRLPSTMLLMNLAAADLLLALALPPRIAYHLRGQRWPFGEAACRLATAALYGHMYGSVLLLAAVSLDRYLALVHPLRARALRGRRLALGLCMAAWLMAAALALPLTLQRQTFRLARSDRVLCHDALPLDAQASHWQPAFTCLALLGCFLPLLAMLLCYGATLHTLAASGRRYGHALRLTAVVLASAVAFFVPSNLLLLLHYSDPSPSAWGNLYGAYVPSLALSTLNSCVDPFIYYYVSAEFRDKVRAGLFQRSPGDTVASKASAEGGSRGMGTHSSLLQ
Method in brief: as §1

[5] = molecular target: T5, PTGER3 (Homo sapiens, UniProt P43115); experiment: PRESTO-Tango GPCR screen; details: 100 µM
T5 construct: purchased PRESTO-Tango GPCR kit (Roth lab / Addgene)
T5 sequence (P43115 whole entry): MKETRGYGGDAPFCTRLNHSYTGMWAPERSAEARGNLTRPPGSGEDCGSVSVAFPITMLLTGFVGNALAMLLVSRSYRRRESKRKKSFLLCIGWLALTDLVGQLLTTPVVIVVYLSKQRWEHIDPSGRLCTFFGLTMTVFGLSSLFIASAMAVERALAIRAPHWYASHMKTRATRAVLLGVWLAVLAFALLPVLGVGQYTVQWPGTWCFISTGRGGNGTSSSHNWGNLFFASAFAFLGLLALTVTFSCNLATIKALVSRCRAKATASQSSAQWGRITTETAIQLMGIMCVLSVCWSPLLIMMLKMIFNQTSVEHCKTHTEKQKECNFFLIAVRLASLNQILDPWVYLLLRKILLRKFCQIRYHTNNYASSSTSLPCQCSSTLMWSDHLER
Method in brief: as §1

[6] = molecular target: T6, MRGPRX2 (Homo sapiens, UniProt Q96LB1); experiment: PRESTO-Tango GPCR screen; details: 100 µM
T6 construct: purchased PRESTO-Tango GPCR kit (Roth lab / Addgene)
T6 sequence (Q96LB1 whole entry): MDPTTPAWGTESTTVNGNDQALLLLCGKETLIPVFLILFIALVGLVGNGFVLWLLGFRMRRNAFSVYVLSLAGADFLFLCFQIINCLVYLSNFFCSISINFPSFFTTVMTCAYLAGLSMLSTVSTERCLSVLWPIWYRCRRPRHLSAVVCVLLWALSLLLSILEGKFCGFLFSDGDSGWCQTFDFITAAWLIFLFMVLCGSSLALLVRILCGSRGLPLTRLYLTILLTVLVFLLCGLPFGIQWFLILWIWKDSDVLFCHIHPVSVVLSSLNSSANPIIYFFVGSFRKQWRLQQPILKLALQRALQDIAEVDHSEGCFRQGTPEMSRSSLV
Method in brief: as §1

[7] = molecular target: T7, F2RL1 (Homo sapiens, UniProt P55085); experiment: PRESTO-Tango GPCR screen; details: 100 µM
T7 construct: purchased PRESTO-Tango GPCR kit (Roth lab / Addgene)
Method in brief: as §1

[8] = molecular target: T8, HTR2C (Homo sapiens, UniProt P28335); experiment: PRESTO-Tango GPCR screen; details: 100 µM
T8 construct: purchased PRESTO-Tango GPCR kit (Roth lab / Addgene)
Method in brief: as §1

[9] = molecular target: T9, HCA2 (Homo sapiens, UniProt Q8TDS4); experiment: PRESTO-Tango GPCR screen; details: 100 µM
T9 construct: purchased PRESTO-Tango GPCR kit (Roth lab / Addgene)
Method in brief: as §1

[10] = molecular target: T10, GPR31 (Homo sapiens, UniProt O00270); experiment: PRESTO-Tango GPCR screen; details: 100 µM
T10 construct: purchased PRESTO-Tango GPCR kit (Roth lab / Addgene)
T10 sequence (O00270 whole entry): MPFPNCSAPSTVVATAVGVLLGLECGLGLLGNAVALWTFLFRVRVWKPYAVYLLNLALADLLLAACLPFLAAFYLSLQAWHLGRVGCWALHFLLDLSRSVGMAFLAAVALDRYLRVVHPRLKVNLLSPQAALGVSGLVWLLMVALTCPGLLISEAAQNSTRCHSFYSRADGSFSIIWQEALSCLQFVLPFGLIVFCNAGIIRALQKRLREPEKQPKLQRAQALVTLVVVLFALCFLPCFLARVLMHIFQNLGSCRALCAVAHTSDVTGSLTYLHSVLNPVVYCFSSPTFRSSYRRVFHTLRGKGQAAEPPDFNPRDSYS
Method in brief: as §1

[11] = molecular target: T11, GPR150 (Homo sapiens, UniProt Q8NGU9); experiment: PRESTO-Tango GPCR screen; details: 100 µM
T11 construct: purchased PRESTO-Tango GPCR kit (Roth lab / Addgene)
Method in brief: as §1

[12] = molecular target: T12, MRGPRF (Homo sapiens, UniProt Q96AM1); experiment: PRESTO-Tango GPCR screen; details: 100 µM
T12 construct: purchased PRESTO-Tango GPCR kit (Roth lab / Addgene)
T12 sequence (Q96AM1 whole entry): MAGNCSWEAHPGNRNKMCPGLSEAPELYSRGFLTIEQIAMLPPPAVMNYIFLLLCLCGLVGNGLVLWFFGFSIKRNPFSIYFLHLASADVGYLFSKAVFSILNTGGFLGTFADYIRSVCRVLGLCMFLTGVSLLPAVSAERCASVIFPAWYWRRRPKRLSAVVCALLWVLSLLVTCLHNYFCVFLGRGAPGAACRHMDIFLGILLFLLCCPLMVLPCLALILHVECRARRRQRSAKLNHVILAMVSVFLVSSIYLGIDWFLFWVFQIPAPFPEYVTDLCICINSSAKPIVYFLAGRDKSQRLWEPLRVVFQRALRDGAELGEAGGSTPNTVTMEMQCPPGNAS
Method in brief: as §1

[13] = molecular target: T13, MC2R (Homo sapiens, UniProt Q01718); experiment: PRESTO-Tango GPCR screen; details: 100 µM
T13 construct: purchased PRESTO-Tango GPCR kit (Roth lab / Addgene)
Method in brief: as §1

[14] = molecular target: T14, P2RY2 (Homo sapiens, UniProt P41231); experiment: PRESTO-Tango GPCR screen; details: 100 µM
T14 construct: purchased PRESTO-Tango GPCR kit (Roth lab / Addgene)
Method in brief: as §1

[15] = molecular target: T15, GPR64 (Homo sapiens, UniProt Q8IZP9); experiment: PRESTO-Tango GPCR screen; details: 100 µM
T15 construct: purchased PRESTO-Tango GPCR kit (Roth lab / Addgene)
T15 sequence (Q8IZP9 38-1017): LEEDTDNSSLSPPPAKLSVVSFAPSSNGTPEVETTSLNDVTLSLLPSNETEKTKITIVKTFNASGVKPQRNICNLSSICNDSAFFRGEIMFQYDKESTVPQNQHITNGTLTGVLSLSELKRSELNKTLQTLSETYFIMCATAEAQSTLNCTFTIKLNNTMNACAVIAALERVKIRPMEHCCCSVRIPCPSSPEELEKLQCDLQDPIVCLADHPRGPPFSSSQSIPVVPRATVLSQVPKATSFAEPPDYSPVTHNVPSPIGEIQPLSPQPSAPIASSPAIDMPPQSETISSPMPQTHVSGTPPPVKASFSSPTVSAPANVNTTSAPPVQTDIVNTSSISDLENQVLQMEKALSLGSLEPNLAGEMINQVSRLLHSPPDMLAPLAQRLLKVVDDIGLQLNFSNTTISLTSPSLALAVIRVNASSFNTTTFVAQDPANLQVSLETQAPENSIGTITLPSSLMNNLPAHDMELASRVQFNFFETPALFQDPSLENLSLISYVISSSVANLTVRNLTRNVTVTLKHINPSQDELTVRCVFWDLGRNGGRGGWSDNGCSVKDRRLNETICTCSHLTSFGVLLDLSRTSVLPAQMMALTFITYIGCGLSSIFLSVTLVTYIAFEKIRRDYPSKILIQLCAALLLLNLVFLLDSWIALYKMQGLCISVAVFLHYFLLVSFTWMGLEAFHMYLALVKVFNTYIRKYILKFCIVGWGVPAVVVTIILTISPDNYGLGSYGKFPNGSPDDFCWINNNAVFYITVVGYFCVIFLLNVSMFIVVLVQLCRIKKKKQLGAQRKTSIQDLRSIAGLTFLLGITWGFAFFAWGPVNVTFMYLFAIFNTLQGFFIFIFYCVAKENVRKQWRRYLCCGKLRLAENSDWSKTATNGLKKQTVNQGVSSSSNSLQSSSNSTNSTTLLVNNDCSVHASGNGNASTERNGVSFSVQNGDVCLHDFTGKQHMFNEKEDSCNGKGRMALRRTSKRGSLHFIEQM
Method in brief: as §1

[16] = molecular target: T16, PK2 (Homo sapiens, UniProt Q8NFJ6); experiment: PRESTO-Tango GPCR screen; details: 100 µM
T16 construct: purchased PRESTO-Tango GPCR kit (Roth lab / Addgene)
Method in brief: as §1

[17] = molecular target: T17, OXGR1 (Homo sapiens, UniProt Q96P68); experiment: PRESTO-Tango GPCR screen; details: 100 µM
T17 construct: purchased PRESTO-Tango GPCR kit (Roth lab / Addgene)
Method in brief: as §1

[18] = molecular target: T18, GPR35 (Homo sapiens, UniProt Q9HC97); experiment: PRESTO-Tango GPCR screen; details: 100 µM
T18 construct: purchased PRESTO-Tango GPCR kit (Roth lab / Addgene)
Method in brief: as §1

[19] = molecular target: T19, CX3C1 (Homo sapiens, UniProt P49238); experiment: PRESTO-Tango GPCR screen; details: 100 µM
T19 construct: purchased PRESTO-Tango GPCR kit (Roth lab / Addgene)
T19 sequence (P49238 whole entry): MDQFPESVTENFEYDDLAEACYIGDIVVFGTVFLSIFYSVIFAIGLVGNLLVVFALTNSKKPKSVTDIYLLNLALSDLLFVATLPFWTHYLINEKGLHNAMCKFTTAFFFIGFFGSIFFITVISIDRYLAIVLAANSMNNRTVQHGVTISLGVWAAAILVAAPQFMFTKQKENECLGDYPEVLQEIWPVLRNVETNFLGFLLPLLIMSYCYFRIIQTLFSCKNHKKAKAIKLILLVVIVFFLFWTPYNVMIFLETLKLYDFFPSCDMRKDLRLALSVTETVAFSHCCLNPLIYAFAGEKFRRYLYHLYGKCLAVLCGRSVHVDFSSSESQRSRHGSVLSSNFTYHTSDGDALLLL
Method in brief: as §1

[20] = molecular target: T20, TAAR6 (Homo sapiens, UniProt Q96RI8); experiment: PRESTO-Tango GPCR screen; details: 100 µM
T20 construct: purchased PRESTO-Tango GPCR kit (Roth lab / Addgene)
T20 sequence (Q96RI8 whole entry): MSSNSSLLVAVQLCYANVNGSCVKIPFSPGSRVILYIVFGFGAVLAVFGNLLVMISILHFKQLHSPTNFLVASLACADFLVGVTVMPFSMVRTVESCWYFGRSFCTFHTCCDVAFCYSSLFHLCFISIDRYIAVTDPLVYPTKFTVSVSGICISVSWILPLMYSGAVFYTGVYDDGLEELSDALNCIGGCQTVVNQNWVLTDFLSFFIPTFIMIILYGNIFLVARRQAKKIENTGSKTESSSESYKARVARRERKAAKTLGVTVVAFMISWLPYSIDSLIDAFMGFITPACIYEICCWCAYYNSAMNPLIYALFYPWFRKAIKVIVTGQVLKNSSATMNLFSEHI
Method in brief: as §1

[21] = molecular target: T21, TAAR8 (Homo sapiens, UniProt Q969N4); experiment: PRESTO-Tango GPCR screen; details: 100 µM
T21 construct: purchased PRESTO-Tango GPCR kit (Roth lab / Addgene)
T21 sequence (Q969N4 whole entry): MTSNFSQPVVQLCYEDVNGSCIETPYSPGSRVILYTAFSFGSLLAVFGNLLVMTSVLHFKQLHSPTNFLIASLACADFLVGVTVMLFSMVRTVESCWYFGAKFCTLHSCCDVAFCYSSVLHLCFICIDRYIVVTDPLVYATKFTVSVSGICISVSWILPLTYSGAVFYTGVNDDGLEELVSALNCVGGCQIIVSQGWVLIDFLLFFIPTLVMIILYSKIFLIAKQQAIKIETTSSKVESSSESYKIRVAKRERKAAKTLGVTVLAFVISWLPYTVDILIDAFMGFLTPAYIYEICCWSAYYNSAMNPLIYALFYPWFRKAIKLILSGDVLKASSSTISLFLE
Method in brief: as §1

[22] = molecular target: T22, CRHR2 (Homo sapiens, UniProt Q13324); experiment: PRESTO-Tango GPCR screen; details: 100 µM
T22 construct: purchased PRESTO-Tango GPCR kit (Roth lab / Addgene)
Method in brief: as §1

[23] = molecular target: T23, AGTR2 (Homo sapiens, UniProt P50052); experiment: PRESTO-Tango GPCR screen; details: 100 µM
T23 construct: purchased PRESTO-Tango GPCR kit (Roth lab / Addgene)
Method in brief: as §1

[24] = molecular target: T24, GPR52 (Homo sapiens, UniProt Q9Y2T5); experiment: PRESTO-Tango GPCR screen; details: 100 µM
T24 construct: purchased PRESTO-Tango GPCR kit (Roth lab / Addgene)
T24 sequence (Q9Y2T5 whole entry): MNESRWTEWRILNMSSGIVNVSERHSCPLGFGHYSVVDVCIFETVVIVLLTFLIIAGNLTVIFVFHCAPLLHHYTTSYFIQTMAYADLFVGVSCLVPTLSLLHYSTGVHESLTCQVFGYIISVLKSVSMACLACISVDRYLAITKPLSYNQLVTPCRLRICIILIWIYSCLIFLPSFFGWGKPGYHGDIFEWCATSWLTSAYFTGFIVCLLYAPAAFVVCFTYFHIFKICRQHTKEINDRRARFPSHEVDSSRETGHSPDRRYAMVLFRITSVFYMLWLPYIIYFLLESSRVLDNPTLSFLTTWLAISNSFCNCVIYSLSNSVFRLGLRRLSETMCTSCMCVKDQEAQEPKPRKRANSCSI
Method in brief: as §1

[25] = molecular target: T25, HRH2 (Homo sapiens, UniProt P25021); experiment: PRESTO-Tango GPCR screen and dose-response; details: for HRH2 dose-response raw reporter signal (Fig. 5b source data): replicate wells
T25 construct: expressed in transfected cells; host or cells: HTLA cells (HEK293 line stably expressing β-arrestin-TEV and tTA-Luciferase)
T25 sequence (P25021 whole entry): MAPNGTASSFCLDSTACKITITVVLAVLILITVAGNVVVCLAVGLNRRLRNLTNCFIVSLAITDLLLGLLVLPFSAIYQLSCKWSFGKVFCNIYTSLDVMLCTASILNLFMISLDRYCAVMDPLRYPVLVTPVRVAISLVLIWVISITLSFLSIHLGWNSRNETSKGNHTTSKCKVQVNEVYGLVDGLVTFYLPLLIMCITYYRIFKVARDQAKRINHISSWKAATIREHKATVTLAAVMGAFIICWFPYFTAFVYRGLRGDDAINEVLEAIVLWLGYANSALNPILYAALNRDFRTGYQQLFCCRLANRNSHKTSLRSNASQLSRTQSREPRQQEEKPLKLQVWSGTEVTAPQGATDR
Method: (§2) The PRESTO-Tango analyses were performed as previously published. Briefly, HTLA cells, a HEK293 cell line that stably expresses β-arrestin-TEV and tTA-Luciferase (a kind gift from Gilad Barnea, Brown University), were plated in 96-well tissue culture plates (Eppendorf) in DMEM containing 10% FBS and 1% Penicillin/Streptomycin. One day after plating (after reaching approximately 90% confluence), 200 ng per well GPCR-Tango plasmids[37] in 20 μL DMEM were individually mixed with 400 ng polyethylenimine (Polysciences) in an equal volume of DMEM and incubated for 20 min at room temperature before adding the transfection mixture to the HTLA cells. 16-24 h after transfection, medium was replaced with 180 μL fresh DMEM containing 1% Penicillin/Streptomycin and 10 mM HEPES and 20 μL of 3 or 3-Homo to reach a final concentration of 100 μM. Supernatants were aspirated 20 h after stimulation and 50 μl per well of Bright-Glo solution (Promega) diluted 20-fold with PBS containing 20 mM HEPES was added into each well. After 15 min incubation at room temperature, luminescence was quantified using a Spectramax i3x microplate reader (Molecular Devices). Activation fold for each sample was calculated by dividing relative luminescence units (RLU) for each condition by RLUs from PBS control. Dose response curves of each chemical were performed in a similar way with varying the ligand concentration from 10^−4 M to 10^−15 M.

[26] = molecular target: T26, histamine receptor H4 (HRH4) (Homo sapiens, UniProt Q9H3N8); experiment: PRESTO-Tango GPCR screen and dose-response; details: for HRH4 dose-response raw reporter signal (Fig. 5b source data): replicate wells
T26 construct: expressed in transfected cells; host or cells: HTLA cells (HEK293 line stably expressing β-arrestin-TEV and tTA-Luciferase)
T26 sequence (Q9H3N8 whole entry): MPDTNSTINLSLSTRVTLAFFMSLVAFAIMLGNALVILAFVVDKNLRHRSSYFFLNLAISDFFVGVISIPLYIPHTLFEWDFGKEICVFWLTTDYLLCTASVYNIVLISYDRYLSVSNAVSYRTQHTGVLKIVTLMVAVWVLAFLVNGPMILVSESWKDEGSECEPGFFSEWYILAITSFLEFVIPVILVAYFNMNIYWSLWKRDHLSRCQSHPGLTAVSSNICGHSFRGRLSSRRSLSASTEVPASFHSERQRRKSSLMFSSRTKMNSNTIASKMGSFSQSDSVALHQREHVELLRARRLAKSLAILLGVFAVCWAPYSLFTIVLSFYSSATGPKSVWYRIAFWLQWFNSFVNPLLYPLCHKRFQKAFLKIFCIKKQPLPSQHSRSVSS
Method: as §2

CC(C)Cc1ncc(CCCNC(=N)N)[nH]c1=O [compound 3]
GPCR activation (heatmap value) [1]: -0.5721
GPCR activation (heatmap value) [2]: -0.2783
GPCR activation (heatmap value) [3]: 0.5796
GPCR activation (heatmap value) [4]: 0.3497
GPCR activation (heatmap value) [5]: 0.03461
GPCR activation (heatmap value) [6]: 0.1651
GPCR activation (heatmap value) [7]: 0.6997
GPCR activation (heatmap value) [8]: 0.7228
GPCR activation (heatmap value) [9]: 0.2197
GPCR activation (heatmap value) [10]: 0.1606
GPCR activation (heatmap value) [11]: -0.9206
GPCR activation (heatmap value) [12]: 0.6496
GPCR activation (heatmap value) [13]: 0.1631
GPCR activation (heatmap value) [14]: 0.0313
GPCR activation (heatmap value) [15]: 0.632
GPCR activation (heatmap value) [16]: -0.4477
GPCR activation (heatmap value) [17]: -0.2265
GPCR activation (heatmap value) [18]: -0.5823
GPCR activation (heatmap value) [19]: 0.5532
GPCR activation (heatmap value) [20]: 0.2505
GPCR activation (heatmap value) [21]: 0.314
GPCR activation (heatmap value) [22]: -0.2766
GPCR activation (heatmap value) [23]: -0.3239
GPCR activation (heatmap value) [24]: 0.9036
GPCR activation (heatmap value) ([25]; HRH2, 100 µM): -0.4047
HRH2 dose-response raw reporter signal (Fig. 5b source data) ([25]; Log(10)Conc (M) -4): 18 and 44 and 35
HRH2 dose-response raw reporter signal (Fig. 5b source data) ([25]; Log(10)Conc (M) -5): 83 and 74 and 44
HRH2 dose-response raw reporter signal (Fig. 5b source data) ([25]; Log(10)Conc (M) -6): 38 (2×) and 44
HRH2 dose-response raw reporter signal (Fig. 5b source data) ([25]; Log(10)Conc (M) -7): 91 and 59 and 47
HRH2 dose-response raw reporter signal (Fig. 5b source data) ([25]; Log(10)Conc (M) -8): 50 (2×) and 41
HRH2 dose-response raw reporter signal (Fig. 5b source data) ([25]; Log(10)Conc (M) -9): 44 and 41 and 71
HRH2 dose-response raw reporter signal (Fig. 5b source data) ([25]; Log(10)Conc (M) -10): 53 and 47 and 59
HRH2 dose-response raw reporter signal (Fig. 5b source data) ([25]; Log(10)Conc (M) -11): 56 (2×) and 44
HRH2 dose-response raw reporter signal (Fig. 5b source data) ([25]; Log(10)Conc (M) -12): 41 (2×) and 27
HRH2 dose-response raw reporter signal (Fig. 5b source data) ([25]; Log(10)Conc (M) -13): 29 and 47 and 56
HRH2 dose-response raw reporter signal (Fig. 5b source data) ([25]; Log(10)Conc (M) -14): 106 and 71 and 50
HRH2 dose-response raw reporter signal (Fig. 5b source data) ([25]; Log(10)Conc (M) -15): 100 and 35 and 29
GPCR activation (heatmap value) ([26]; HRH4, 100 µM): 2.217
HRH4 dose-response raw reporter signal (Fig. 5b source data) ([26]; Log(10)Conc (M) -5): 8773 and 9531
HRH4 dose-response raw reporter signal (Fig. 5b source data) ([26]; Log(10)Conc (M) -6): 1621 and 2108
HRH4 dose-response raw reporter signal (Fig. 5b source data) ([26]; Log(10)Conc (M) -7): 649 and 769
HRH4 dose-response raw reporter signal (Fig. 5b source data) ([26]; Log(10)Conc (M) -8): 454 and 619
HRH4 dose-response raw reporter signal (Fig. 5b source data) ([26]; Log(10)Conc (M) -9): 531 and 542
HRH4 dose-response raw reporter signal (Fig. 5b source data) ([26]; Log(10)Conc (M) -10): 578 and 380
HRH4 dose-response raw reporter signal (Fig. 5b source data) ([26]; Log(10)Conc (M) -11): 348 and 430
HRH4 dose-response raw reporter signal (Fig. 5b source data) ([26]; Log(10)Conc (M) -12): 348 and 454
HRH4 dose-response raw reporter signal (Fig. 5b source data) ([26]; Log(10)Conc (M) -13): 286 and 351
HRH4 dose-response raw reporter signal (Fig. 5b source data) ([26]; Log(10)Conc (M) -14): 262 and 481
HRH4 dose-response raw reporter signal (Fig. 5b source data) ([26]; Log(10)Conc (M) -15): 292 and 283
EC50 ([26]; PRESTO-Tango dose-response, n = 3, read-out: EC50 (HRH4 activation)): 12.5 µM
